Results reported in ChEMBL document CHEMBL2146431, “Phosphoramidate derivatives of acyclovir: synthesis and antiviral activity in HIV-1 and HSV-1 models in vitro” (Bioorg Med Chem, 2012).
The source made the active and inactive calls. No cut-off for these calls is given here.

Experiments:
Jurkat = assay: Cytotoxicity against human Jurkat cells up to 2000 uM after 48 hrs by trypan blue staining; assay type: cell-based
[1] = system: Human immunodeficiency virus 1; assay: Antiviral activity against HIV1 pseudovirus infected in Jurkat cells coexpressing GFP assessed as viral growth inhibition incubated for 2 to 8 hrs prior to infection measured after 48 hrs by flow cytofluorimetric analysis; assay type: functional, organism-based
[2] = system: Human immunodeficiency virus 1; assay: Antiviral activity against HIV1 pseudovirus infected in Jurkat cells coexpressing GFP assessed as viral growth inhibition up to 100 uM incubated for 2 to 8 hrs prior to infection measured after 48 hrs by flow cytofluorimetric analysis; assay type: functional, organism-based
[3] = Half life of the compound in KCl/KOH buffer at pH 12 assessed as acyclovir and acyclovir monophosphate formation by TLC analysis; assay type: physicochemical
[4] = Half life of the compound in phosphate buffer at pH 7.4 assessed as acyclovir formation by TLC analysis; assay type: physicochemical
[5] = Half life of the compound in KCl/HCl buffer at pH 2 assessed as acyclovir monophosphate formation by TLC analysis; assay type: physicochemical
[6] = Chemical stability of the compound in KCl/HCl buffer at pH 2 assessed as monoamidate formation by TLC analysis; assay type: physicochemical
[7] = Half life of the compound in KCl/KOH buffer at pH 12 assessed as acyclovir formation by TLC analysis; assay type: physicochemical
Human alphaherpesvirus 1 [8] = assay: Resistance ratio of EC50 for acyclovir-resistant HSV1 L2 to EC50 for HSV1 L2; assay type: functional
[9] = Selectivity ratio of CC50 for african green monkey Vero cells to EC50 for acyclovir-resistant HSV1 L2; assay type: ADME, cell-based; conditions: read-out: Ratio CC50/EC50
[10] = Cytotoxicity against african green monkey Vero E6 cells after 72 hrs by trypan blue staining; assay type: cell-based; conditions: chlorocebus sabaeus
[11] = Selectivity ratio of CC50 for african green monkey Vero cells to EC50 for HSV1 L2; assay type: ADME, cell-based; conditions: read-out: Ratio CC50/EC50
Human alphaherpesvirus 1 [12] = assay: Antiviral activity against acyclovir-resistant HSV1 L2 infected in Vero E6 cells assessed as inhibition of virus-induced cytopathic effect after 48 hrs; assay type: functional, organism-based; conditions: Human alphaherpesvirus 1, L2, Vero
Human alphaherpesvirus 1 [13] = assay: Antiviral activity against HSV1 L2 infected in Vero E6 cells assessed as inhibition of virus-induced cytopathic effect after 48 hrs; assay type: functional, organism-based; conditions: Human alphaherpesvirus 1, L2, Vero
[14] = system: Human immunodeficiency virus 1; assay: Antiviral activity against HIV1 pseudovirus by cell-based assay; assay type: functional, organism-based
[15] = system: Human immunodeficiency virus 1; assay: Antiviral activity against HIV1 pseudovirus infected in Jurkat cells coexpressing GFP assessed as viral growth inhibition at 20 uM incubated for 2 to 8 hrs prior to infection measured after 48 hrs by flow cytofluorimetric analysis; assay type: functional; conditions: Human immunodeficiency virus 1, Jurkat; read-out: GI

Row | Structure (SMILES) | Activity (Jurkat) | growth inhibition (GI) [1] | growth inhibition (GI) [2] | t1/2 [3] | t1/2 [4] | t1/2 [5] | Stability [6] | t1/2 [7] | Ratio EC50 (Human alphaherpesvirus 1 [8]) | selectivity ratio [9] | CC50 at 72 h [10] | selectivity ratio [11] | EC50 (Human alphaherpesvirus 1 [12]) | EC50 (Human alphaherpesvirus 1 [13]) | EC50 [14] | EC50 ([1]; Human immunodeficiency virus 1, Jurkat) | inhibition of growth at 20 µM [15]
1 | N.Nc1nc2c(ncn2COCCOP(=O)(O)N2CCCC2)c(=O)[nH]1 | Non-toxic | Dose-dependent effect | Active | 96 h | > 120 h | < 0.083 h | – | – | – | – | – | – | – | – | – | – | –
2 | CN(C)CCNP(=O)(O)OCCOCn1cnc2c(=O)[nH]c(N)nc21.N | Non-toxic | – | – | 48 h | > 120 h | < 0.083 h | – | – | – | – | – | – | – | – | – | – | –
3 | Nc1nc2c(ncn2COCCOP(=O)(N2CCCC2)N2CCCC2)c(=O)[nH]1 | Non-toxic | – | – | – | 18 h | 0.167 h | Stable | 3 h | – | – | – | – | – | – | – | – | –
4 | N.Nc1nc2c(ncn2COCCOP(=O)(O)NCCN2CCOCC2)c(=O)[nH]1 | Non-toxic | Dose-dependent effect | Active | 48 h | > 120 h | < 0.083 h | – | – | – | – | – | – | – | – | – | – | –
5 | CCCCCCNP(=O)(O)OCCOCn1cnc2c(=O)[nH]c(N)nc21.N | Non-toxic | Dose-dependent effect | Active | 48 h | > 120 h | < 0.083 h | – | – | – | – | – | – | – | – | – | – | –
6 | CN(C)CCCNP(=O)(O)OCCOCn1cnc2c(=O)[nH]c(N)nc21.N | Non-toxic | – | – | 48 h | > 120 h | < 0.083 h | – | – | – | – | – | – | – | – | – | – | –
7 | CCCN(CCC)P(=O)(O)OCCOCn1cnc2c(=O)[nH]c(N)nc21.N | Non-toxic | Dose-dependent effect | Active | 96 h | > 120 h | < 0.083 h | – | – | 2.5 | > 54 | > 2000 µM | > 133 | 37 µM | 15 µM | – | – | –
8 | CCCCCCNP(=O)(NCCCCCC)OCCOCn1cnc2c(=O)[nH]c(N)nc21 | Non-toxic | – | – | – | 5 h | 0.083 h | Stable | 1 h | – | – | – | – | – | – | – | – | –
9 | Nc1nc2c(ncn2COCCOP(=O)(N2CCOCC2)N2CCOCC2)c(=O)[nH]1 | Non-toxic | – | – | – | > 120 h | 0.5 h | Stable | 18 h | – | – | > 2000 µM | – | > 500 µM | > 500 µM | – | – | –
10 | Cc1cn([C@H]2C[C@H](N=[N+]=[N-])[C@@H](CO)O2)c(=O)[nH]c1=O [ZIDOVUDINE] | – | – | – | – | – | – | – | – | – | – | – | – | – | – | 0.003 µM | 0.09 µM | –
11 | Nc1nc2c(ncn2COCCO)c(=O)[nH]1 [ACYCLOVIR] | – | Dose-dependent effect | Active | – | – | – | – | – | – | > 3.8 | > 2000 µM | > 1180 | 530 µM | 1.7 µM | – | – | –
12 | N.Nc1nc2c(ncn2COCCOP(=O)(O)N2CCOCC2)c(=O)[nH]1 | Non-toxic | Dose-dependent effect | Active | > 120 h | > 120 h | < 0.083 h | – | – | 2.5 | > 80 | > 2000 µM | > 206 | 25 µM | 9.7 µM | – | – | 50%
13 | Nc1nc2c(ncn2COCCOP(N)(N)=O)c(=O)[nH]1 | Non-toxic | – | – | – | 4 h | 0.083 h | Stable | < 1 h | – | – | – | – | – | – | – | – | –
14 | Nc1nc(=O)c2ncn(COCCOP(=O)(O)O)c2[nH]1 | Non-toxic | – | – | – | – | – | – | – | – | > 49 | > 2000 µM | > 100 | 41 µM | 20 µM | – | – | –
